Experimental findings from patent publication US12653809B2, “Urea, amide, and substituted heteroaryl compounds for CBL-B inhibition” (Nurix Therapeutics, Inc., priority 2019, dated 2026) are described below.

This assay has as its target T1, Cbl-b (truncated variant, UniProt number Q13191) (Homo sapiens, UniProt Q13191).
T1 construct: made in house
Kind of assay: Cbl-b activity assay (TR-FRET, interaction of Cbl-b with UbcH5B-Ub). The assay is classed as biochemical.

The mark [1] stands for this setting: Biological Example 1A, low or high conditions not stated, read-out: IC50 values in the Cbl-b inhibition assay of Biological Example 1A.
[2] abbreviates: high conditions: 100 mM NaCl, 60 nM Src kinase, 12 nM Cbl-b, read-out: Cbl-b activity IC50.

Like-named read-outs stand apart in the source and are kept apart here.

T1 sequence (Q13191 36-427): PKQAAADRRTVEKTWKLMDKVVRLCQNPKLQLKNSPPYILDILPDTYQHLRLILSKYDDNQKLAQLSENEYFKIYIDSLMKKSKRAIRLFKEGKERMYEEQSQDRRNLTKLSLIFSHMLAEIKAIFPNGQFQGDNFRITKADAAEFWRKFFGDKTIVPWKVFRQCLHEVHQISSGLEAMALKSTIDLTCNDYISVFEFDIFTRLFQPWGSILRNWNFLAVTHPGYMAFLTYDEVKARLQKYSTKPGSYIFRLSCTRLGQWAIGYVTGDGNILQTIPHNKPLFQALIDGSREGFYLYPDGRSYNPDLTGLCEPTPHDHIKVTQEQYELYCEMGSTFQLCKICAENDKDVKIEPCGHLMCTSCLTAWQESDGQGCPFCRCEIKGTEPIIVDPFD

For `C[C@H](Sc1nncn1C)c1cccc(-n2ncc(-c3ccc(Cl)cc3)n2)c1` [Example 72, (S)-4-(4-chlorophenyl)-2-(3-(1-((4-methyl-4H-1,2,4-triazol-3-yl)thio)ethyl)phenyl)-2H-1,2,3-triazole], the IC50 (in general, the concentration at which inhibition is half-maximal) fell in the range of 1 to 5 µM under setting [1] and 1 to 5 µM under setting [2].

Regarding `C[C@H](Sc1nncn1C)c1cccc(-n2cc(-c3ccc(Cl)cc3)nn2)c1` [Example 73, (S)-4-(4-chlorophenyl)-1-(3-(1-((4-methyl-4H-1,2,4-triazol-3-yl)thio)ethyl)phenyl)-1H-1,2,3-triazole], the half-maximal inhibitory concentration (IC50) runs as follows: under setting [1], 1 to 5 µM; under setting [2], 1 to 5 µM.

In the case of `COc1ccc(-c2cnn(-c3cccc([C@H](C)Sc4nncn4C)c3)n2)cc1` [Example 74, (S)-4-(4-methoxyphenyl)-2-(3-(1-((4-methyl-4H-1,2,4-triazol-3-yl)thio)ethyl)phenyl)-2H-1,2,3-triazole], the half-maximal inhibitory concentration (IC50) by setting is: under setting [1], 0.1 to 1 µM; under setting [2], 0.1 to 1 µM.

Regarding `COc1ccc(-c2cn(-c3cccc([C@H](C)Sc4nncn4C)c3)nn2)cc1` [Example 75, (S)-4-(4-methoxyphenyl)-1-(3-(1-((4-methyl-4H-1,2,4-triazol-3-yl)thio)ethyl)phenyl)-1H-1,2,3-triazole], under setting [2], the IC50 fell in the range of 1 to 5 µM.

As to `COc1cccc(-c2cnn(-c3cccc([C@H](C)Sc4nncn4C)c3)n2)c1` [Example 76, (S)-4-(3-methoxyphenyl)-2-(3-(1-((4-methyl-4H-1,2,4-triazol-3-yl)thio)ethyl)phenyl)-2H-1,2,3-triazole], the IC50 under setting [2] fell in the range of 1 to 5 µM.

Take `COc1cccc(-c2cn(-c3cccc([C@H](C)Sc4nncn4C)c3)nn2)c1` [Example 77, (S)-4-(3-methoxyphenyl)-1-(3-(1-((4-methyl-4H-1,2,4-triazol-3-yl)thio)ethyl)phenyl)-1H-1,2,3-triazole]: the IC50 under setting [2] lay in the range of 1 to 5 µM.

Turning to `C[C@H](Sc1nncn1C)c1cccc(-n2ncc(-c3cccc(Cl)c3)n2)c1` [Example 78, 4-(3-chlorophenyl)-2-[3-[(1S)-1-[(4-methyl-4H-1,2,4-triazol-3-yl)sulfanyl]ethyl]phenyl]-2H-1,2,3-triazole], under setting [2], the IC50 fell in the range of 1 to 5 µM.

`C[C@H](Sc1nncn1C)c1cccc(-n2cc(-c3cccc(Cl)c3)nn2)c1` [Example 79, 4-(3-chlorophenyl)-1-{3-[(1S)-1-[(4-methyl-4H-1,2,4-triazol-3-yl)sulfanyl]ethyl]phenyl}-1H-1,2,3-triazole]: the IC50 under setting [2] fell in the range of 1 to 5 µM.

For `C[C@H](Sc1nncn1C)c1cccc(-n2ncc(-c3ccc(C(=O)O)cc3)n2)c1` [Example 80, (S)-4-(2-(3-(1-(4-methyl-4H-1,2,4-triazol-3-ylthio)ethyl)phenyl)-2H-1,2,3-triazol-4-yl)benzoic acid], the IC50 is at least 5 µM under setting [1] and at least 5 µM under setting [2].

Regarding `C[C@H](Sc1nncn1C)c1cccc(-n2cc(-c3ccc(C(=O)O)cc3)nn2)c1` [Example 81, (S)-4-(1-(3-(1-(4-methyl-4H-1,2,4-triazol-3-ylthio)ethyl)phenyl)-1H-1,2,3-triazol-4-yl)benzoic acid], the IC50 is, setting by setting: under setting [1], at least 5 µM; under setting [2], at least 5 µM.

As to `CNC(=O)c1ccc(-c2cnn(-c3cccc([C@H](C)Sc4nncn4C)c3)n2)cc1` [Example 82, (S)—N-methyl-4-(2-(3-(1-(4-methyl-4H-1,2,4-triazol-3-ylthio)ethyl)phenyl)-2H-1,2,3-triazol-4-yl)benzamide], the IC50 runs as follows: under setting [1], 1 to 5 µM; under setting [2], 1 to 5 µM.

Consider `CNC(=O)c1ccc(-c2cn(-c3cccc([C@H](C)Sc4nncn4C)c3)nn2)cc1` [Example 83, (S)—N-methyl-4-(1-(3-(1-(4-methyl-4H-1,2,4-triazol-3-ylthio)ethyl)phenyl)-1H-1,2,3-triazol-4-yl)benzamide], for which the IC50 was at least 5 µM under setting [1] and at least 5 µM under setting [2].

In the case of `C[C@H](Sc1nncn1C)c1cccc(-n2ncc(-c3ccc(CO)cc3)n2)c1` [Example 84, (S)-(4-(2-(3-(1-(4-methyl-4H-1,2,4-triazol-3-ylthio)ethyl)phenyl)-2H-1,2,3-triazol-4-yl)phenyl)methanol], the IC50 was in the range of 1 to 5 µM under setting [1] and 1 to 5 µM under setting [2].

Take `C[C@H](Sc1nncn1C)c1cccc(-n2cc(-c3ccc(CO)cc3)nn2)c1` [Example 85, (S)-(4-(1-(3-(1-(4-methyl-4H-1,2,4-triazol-3-ylthio)ethyl)phenyl)-1H-1,2,3-triazol-4-yl)phenyl)methanol]: the IC50 is, setting by setting: under setting [1], at least 5 µM; under setting [2], at least 5 µM.

Turning to `C[C@H](Sc1nncn1C)c1cccc(-n2ncc(-c3ccc(C(N)=O)cc3)n2)c1` [Example 86, (S)-4-(2-(3-(1-(4-methyl-4H-1,2,4-triazol-3-ylthio)ethyl)phenyl)-2H-1,2,3-triazol-4-yl)benzamide], the IC50 reads like this: under setting [1], 1 to 5 µM; under setting [2], 1 to 5 µM.

Turning to `C[C@H](Sc1nncn1C)c1cccc(-n2cc(-c3ccc(C(N)=O)cc3)nn2)c1` [Example 87, (S)-4-(1-(3-(1-(4-methyl-4H-1,2,4-triazol-3-ylthio)ethyl)phenyl)-1H-1,2,3-triazol-4-yl)benzamide], the IC50 under setting [1] is 1 to 5 µM and the IC50 under setting [2] was 1 to 5 µM.

For the compound `C[C@H](Sc1nncn1C)c1cccc(-n2ncc(-c3ccc(C#N)cc3)n2)c1` [Example 88, (S)-4-(2-(3-(1-(4-methyl-4H-1,2,4-triazol-3-ylthio)ethyl)phenyl)-2H-1,2,3-triazol-4-yl)benzonitrile], the IC50 runs as follows: under setting [1], 0.1 to 1 µM; under setting [2], 0.1 to 1 µM.

Consider `C[C@H](Sc1nncn1C)c1cccc(-n2cc(-c3ccc(C#N)cc3)nn2)c1` [Example 89, (S)-4-(1-(3-(1-(4-methyl-4H-1,2,4-triazol-3-ylthio)ethyl)phenyl)-1H-1,2,3-triazol-4-yl)benzonitrile], for which the half-maximal inhibitory concentration (IC50) runs as follows: under setting [1], 1 to 5 µM; under setting [2], 1 to 5 µM.

With `C[C@H](Sc1nncn1C)c1cccc(-n2ncc(-c3cccc(C(=O)O)c3)n2)c1` [Example 90, (S)-3-(2-(3-(1-(4-methyl-4H-1,2,4-triazol-3-ylthio)ethyl)phenyl)-2H-1,2,3-triazol-4-yl)benzoic acid], the concentration for half-maximal inhibition (IC50) runs as follows: under setting [1], 1 to 5 µM; under setting [2], 1 to 5 µM.

Regarding `C[C@H](Sc1nncn1C)c1cccc(-n2cc(-c3cccc(C(=O)O)c3)nn2)c1` [Example 91, (S)-3-(1-(3-(1-(4-methyl-4H-1,2,4-triazol-3-ylthio)ethyl)phenyl)-1H-1,2,3-triazol-4-yl)benzoic acid], the IC50 was at least 5 µM under setting [1] and at least 5 µM under setting [2].

As to `C[C@H](Sc1nncn1C)c1cccc(-n2cc(-c3cccc(CO)c3)nn2)c1` [Example 92, (S)-(3-(1-(3-(1-(4-methyl-4H-1,2,4-triazol-3-ylthio)ethyl)phenyl)-1H-1,2,3-triazol-4-yl)phenyl)methanol], the IC50 under setting [1] is at least 5 µM and the IC50 under setting [2] was at least 5 µM.

With `CNC(=O)c1cccc(-c2cnn(-c3cccc([C@H](C)Sc4nncn4C)c3)n2)c1` [Example 93, (S)—N-methyl-3-(2-(3-(1-(4-methyl-4H-1,2,4-triazol-3-ylthio)ethyl)phenyl)-2H-1,2,3-triazol-4-yl)benzamide], the IC50 under setting [1] fell in the range of 1 to 5 µM and the half-inhibitory concentration (IC50) under setting [2] was 1 to 5 µM.

For the compound `CNC(=O)c1cccc(-c2cn(-c3cccc([C@H](C)Sc4nncn4C)c3)nn2)c1` [Example 94, (S)—N-methyl-3-(1-(3-(1-(4-methyl-4H-1,2,4-triazol-3-ylthio)ethyl)phenyl)-1H-1,2,3-triazol-4-yl)benzamide], the IC50 under setting [1] is at least 5 µM and the IC50 under setting [2] was at least 5 µM.
